Experimental data as given in patent US12048686B2, “Compositions and methods for activating NRF2-dependent gene expression” (The University of Chicago, priority 2018, dated 2024).
“Also recorded” adds a separate entry of the source.

Key:
[1] = tested on: IMR32 cells; assay: IMR32 viability with co-treatments (cell titer glo); assay type: cell-based
Experimental: FIG. 38. PGK1 toxicity can be rescued with metabolites that are involved with GSH biosynthesis and quenching of reactive oxygen species and methylglyoxal. […] IMR32 cells treated for 48 hr in presence of indicated drugs.
PGK1 toxicity can be rescued with metabolites that are involved with GSH biosynthesis and quenching of reactive oxygen species and methylglyoxal.
IMR32 cells were treated for 48 hrs with CBR-470-1 and/or BBGC at combinations of doses in a synergy matrix (FIG. 41). […] Viability measured using cell titer glo assay (Promega). Viability decreased at higher concentrations of CBR-470-1 and BBGC start at 5 uM. […] Sensitivity of cell lines to direct inhibition of GLO1 (which detoxifies MGO) is generally correlated with sensitivity to PGK1 inhibition with CBR-470-1-consistent with MGO buildup playing a role in toxicity.

[2] = LPS acute lung injury mouse model; assay type: in vivo; conditions: 50 mg/kg intraperitoneally
Experimental: FIG. 23. Mice treated with CBR-470-2 or vehicle (NaOH) IP and intratracheally instill LPS to induce acute lung injury.
Systemic CBR-470-2 treatment in acute lung injury mouse model reduces bronchial alveolar lavage (immune cells) cell TNF, IL1b and IL6 production (FIG. 23). C57/B6 Mice were treated with either CBR-470-2 (50 mg/kg dissolved in water and NaOH (1:1)) or vehicle (NaOH) intraperitoneally, and intratracheally instill 0.7 mg/kg of lipopolysaccharide (LPS) to induce […].

[3] = UVB skin damage model; conditions: mouse
Experimental: UVB Skin Damage Model. 32 5-week old Balb/c male mice were randomized into 4 groups of 8 animals such that each group had similar body weight means. Mice were prepared for removal of hair from their entire back two days prior to UVB exposure (day 3) by using an electric shaver and depilatory cream. On day 5, mice received exposure to UVB (200 mJ/cm^2) produced by a broad band UVB lamp (Dermapal UVB Rev 2) powered by a Kernel UV Phototherapy system. UVB exposure was confined to a rectangular area of ˜8 cm^2 by a lead shielding mask. UVB doses were confirmed by dosimeter measurements (Daavlin X96). Sham animals were shaved but received no UVB treatment. Mice were dosed from day 0 to study end at day 10 via oral gavage twice daily (CBR-470-2, 50 mg/kg BID PO; BARD, 3 mg/kg PO; Vehicle, 0.5% methyl cellulose/0.5% Tween80). Mice were monitored daily for body weight changes and erythema scoring from days 5 to 10. […] Blinded erythema scores were recorded by a blinded, trained investigator according to established in house scale. […]
Percent wounded area measurements. […] Red content corresponding to wounds was then quantified as a fraction of the whole imaging field and reported as percent wounded area.
Epidermal thickness measurements. […] 24 individual measurements of epidermal thickness from 8 sections spanning a 400 μm step distance were recorded per animal by a non-blinded, trained investigator. […]

CC1(C)CC(O)CC(C)(C)N1[O] [Tempol]
effect of co-treatment with ROS scavenger on anti-proliferative effects of CBR-470-1 ([1]; co-treatment with CBR-470-1): does not effectively reduce anti-proliferative effects of CBR-470-1

O=C(O)CN[C@H]1CS(=O)(=O)C[C@@H]1S(=O)(=O)c1ccc(Cl)c(Cl)c1 [CBR-470-2]
IL6 gene expression, lung tissue ([2]; LPS): decreased gene expression of IL6
IL1b production, BAL cells ([2]; LPS 0.7 mg/kg intratracheally): decreased TNF, IL6, and IL1b production
IL6 production, BAL cells ([2]; LPS 0.7 mg/kg intratracheally): decreased TNF, IL6, and IL1b production; also recorded: decreased IL-6, and mRNA expression in immune cells (BAL cells)
TNF production, BAL cells ([2]; LPS 0.7 mg/kg intratracheally): decreased TNF, IL6, and IL1b production
NRF2 signaling in vivo (pharmacodynamic and efficacy data) [3]: capable of modulating NRF2 signaling in vivo

CN(C)C(=N)N=C(N)N [metformin]
effect of co-treatment on viability effects of PGK1 inhibition ([1]; across cell lines, on average, IMR32 48 hr): do not strongly affect viability effects of PGK1 inhibition; also recorded: do not strongly effect viability effect of PGK1 inhibition
